Results: doi:10.1101/2023.05.04.537313v1 (biorxiv, 2023)

Biological target: T1, SLC1A3 (Homo sapiens, UniProt P43003)
T1 construct: overexpressed in HEK293-JI cells co-expressing iAspSnFR
Test: cellular uptake read by iAspSnFR, flow cytometry
Assay type: cell-based
Conditions: range is the 95% CI, no central value printed; 3 h starved cells, 30 min incubation; first (TFB-TBOA-sensitive) phase of a biphasic curve; read-out: K0.5

T1 sequence (P43003 whole entry): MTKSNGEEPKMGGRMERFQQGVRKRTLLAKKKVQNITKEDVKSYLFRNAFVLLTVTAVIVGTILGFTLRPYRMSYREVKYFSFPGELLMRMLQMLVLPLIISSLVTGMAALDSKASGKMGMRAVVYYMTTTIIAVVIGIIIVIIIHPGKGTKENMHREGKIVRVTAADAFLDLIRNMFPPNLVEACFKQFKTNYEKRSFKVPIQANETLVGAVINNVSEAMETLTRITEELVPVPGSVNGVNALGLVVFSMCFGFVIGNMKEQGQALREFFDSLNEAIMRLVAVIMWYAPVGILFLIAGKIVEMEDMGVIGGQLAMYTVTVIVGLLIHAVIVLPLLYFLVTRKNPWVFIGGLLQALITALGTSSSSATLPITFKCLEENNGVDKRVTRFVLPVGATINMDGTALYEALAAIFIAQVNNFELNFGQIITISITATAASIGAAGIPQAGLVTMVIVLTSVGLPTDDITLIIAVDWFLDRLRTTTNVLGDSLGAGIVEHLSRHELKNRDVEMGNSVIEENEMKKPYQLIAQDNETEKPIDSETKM

Km: 9 to 47 µM
Structure (SMILES): N[C@@H](CC(=O)O)C(=O)O [aspartate]
